What was measured:
[1] = test system: A. baumannii ATCC 17978 (SEN) and A. baumannii ATCC BAA-1605 (MDR); assay: Adaptive laboratory evolution (ALE), relative MIC of evolved lines; format: cell-based, Acinetobacter baumannii
Method in brief: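 Ten parallel populations per antibiotic–ancestor pair were evolved in MHB at 37 °C, starting near 50% growth-inhibiting drug. Every 72 h they were passaged into 0.5–2.5× increasing concentrations, keeping the highest-drug well with OD600 > 0.2.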

[2] = test system: E. coli BW25113: pUCacrAB; assay: AcrAB-TolC efflux overexpression screen, relative MIC; format: cell-based, Escherichia coli; conditions: pUCacrAB vs empty pUC118 control
Method in brief: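 Broth microdilution in MHB (supplemented MS for SCH79797), ten-step antibiotic dilutions, 5 × 10^5 cells/mL, 18 h at 37 °C with shaking; MIC is lowest concentration giving background-corrected OD600 < 0.05. Relative MIC as log2 ratio: ΔacrB vs wild-type; pUCacrAB vs empty pUC118 (plasmid strains under 100 µg/mL ampicillin). Mean of 3 biological replicates.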

[3] = AB-MDR (Acinetobacter baumannii ATCC BAA 1605), evolved line 2
[4] = AB-MDR (Acinetobacter baumannii ATCC BAA 1605), evolved line 5
[5] = AB-MDR (Acinetobacter baumannii ATCC BAA 1605), evolved line 7
[6] = AB-MDR (Acinetobacter baumannii ATCC BAA 1605), evolved line 9
[7] = AB-MDR (Acinetobacter baumannii ATCC BAA 1605), evolved line 10
[8] = AB-SEN (Acinetobacter baumannii ATCC 17978), evolved line 4
[9] = AB-SEN (Acinetobacter baumannii ATCC 17978), evolved line 6
[10] = AB-SEN (Acinetobacter baumannii ATCC 17978), evolved line 8
[11] = AB-SEN (Acinetobacter baumannii ATCC 17978), evolved line 9
[12] = AB-SEN (Acinetobacter baumannii ATCC 17978), evolved line 10

CC(C)c1ccc(Cn2ccc3c4c(N)nc(NC5CC5)nc4ccc32)cc1 [SCH79797]
MIC of evolved line ([1]; AB-MDR (A. baumannii ATCC BAA 1605), evolved line 2 of the given antibiotic): 8 µg/mL | Relative MIC ([1]; AB-MDR (A. baumannii ATCC BAA 1605), evolved line 2 vs ancestor): 2 | MIC of evolved line ([1]; AB-MDR (A. baumannii ATCC BAA 1605), evolved line 5 of the given antibiotic): 8 µg/mL | Relative MIC ([1]; AB-MDR (A. baumannii ATCC BAA 1605), evolved line 5 vs ancestor): 2 | MIC of evolved line ([1]; AB-MDR (A. baumannii ATCC BAA 1605), evolved line 7 of the given antibiotic): 16 µg/mL | Relative MIC ([1]; AB-MDR (A. baumannii ATCC BAA 1605), evolved line 7 vs ancestor): 4 | MIC of evolved line ([1]; AB-MDR (A. baumannii ATCC BAA 1605), evolved line 9 of the given antibiotic): 8 µg/mL | Relative MIC ([1]; AB-MDR (A. baumannii ATCC BAA 1605), evolved line 9 vs ancestor): 2 | MIC of evolved line ([1]; AB-MDR (A. baumannii ATCC BAA 1605), evolved line 10 of the given antibiotic): 8 µg/mL | Relative MIC ([1]; AB-MDR (A. baumannii ATCC BAA 1605), evolved line 10 vs ancestor): 2 | Relative MIC [1, 3]: 2 | Relative MIC (log10) [1, 3]: 0.301 log10 | Relative MIC [1, 4]: 2 | Relative MIC (log10) [1, 4]: 0.301 log10 | Relative MIC [1, 5]: 4 | Relative MIC (log10) [1, 5]: 0.6021 log10 | Relative MIC [1, 6]: 2 | Relative MIC (log10) [1, 6]: 0.301 log10 | Relative MIC [1, 7]: 2 | Relative MIC (log10) [1, 7]: 0.301 log10 | MIC of evolved line ([1]; AB-SEN (A. baumannii ATCC 17978), evolved line 2 of the given antibiotic): 4 µg/mL | Relative MIC ([1]; AB-SEN (A. baumannii ATCC 17978), evolved line 2 vs ancestor): 1 | MIC of evolved line ([1]; AB-SEN (A. baumannii ATCC 17978), evolved line 4 of the given antibiotic): 8 µg/mL | Relative MIC ([1]; AB-SEN (A. baumannii ATCC 17978), evolved line 4 vs ancestor): 2 | MIC of evolved line ([1]; AB-SEN (A. baumannii ATCC 17978), evolved line 6 of the given antibiotic): 8 µg/mL | Relative MIC ([1]; AB-SEN (A. baumannii ATCC 17978), evolved line 6 vs ancestor): 2 | MIC of evolved line ([1]; AB-SEN (A. baumannii ATCC 17978), evolved line 8 of the given antibiotic): 8 µg/mL | Relative MIC ([1]; AB-SEN (A. baumannii ATCC 17978), evolved line 8 vs ancestor): 2 | MIC of evolved line ([1]; AB-SEN (A. baumannii ATCC 17978), evolved line 9 of the given antibiotic): 8 µg/mL | Relative MIC ([1]; AB-SEN (A. baumannii ATCC 17978), evolved line 9 vs ancestor): 2 | MIC of evolved line ([1]; AB-SEN (A. baumannii ATCC 17978), evolved line 10 of the given antibiotic): 8 µg/mL | Relative MIC ([1]; AB-SEN (A. baumannii ATCC 17978), evolved line 10 vs ancestor): 2 | Relative MIC ([1]; AB-SEN (Acinetobacter baumannii ATCC 17978), evolved line 2): 1 | Relative MIC [1, 8]: 2 | Relative MIC (log10) [1, 8]: 0.301 log10 | Relative MIC [1, 9]: 2 | Relative MIC (log10) [1, 9]: 0.301 log10 | Relative MIC [1, 10]: 2 | Relative MIC (log10) [1, 10]: 0.301 log10 | Relative MIC [1, 11]: 2 | Relative MIC (log10) [1, 11]: 0.301 log10 | Relative MIC [1, 12]: 2 | Relative MIC (log10) [1, 12]: 0.301 log10 | Relative MIC ([1]; ALE, Acinetobacter baumannii ATCC 17978 (AB-SEN), evolved line 2): 1 | Relative MIC ([1]; ALE, Acinetobacter baumannii ATCC 17978 (AB-SEN), evolved line 4): 2 | Relative MIC ([1]; ALE, Acinetobacter baumannii ATCC 17978 (AB-SEN), evolved line 6): 2 | Relative MIC ([1]; ALE, Acinetobacter baumannii ATCC 17978 (AB-SEN), evolved line 8): 2 | Relative MIC ([1]; ALE, Acinetobacter baumannii ATCC 17978 (AB-SEN), evolved line 9): 2 | Relative MIC ([1]; ALE, Acinetobacter baumannii ATCC 17978 (AB-SEN), evolved line 10): 2 | Relative MIC ([1]; ALE, Acinetobacter baumannii ATCC BAA 1605 (AB-MDR), evolved line 2): 2 | Relative MIC ([1]; ALE, Acinetobacter baumannii ATCC BAA 1605 (AB-MDR), evolved line 5): 2 | Relative MIC ([1]; ALE, Acinetobacter baumannii ATCC BAA 1605 (AB-MDR), evolved line 7): 4 | Relative MIC ([1]; ALE, Acinetobacter baumannii ATCC BAA 1605 (AB-MDR), evolved line 9): 2 | Relative MIC ([1]; ALE, Acinetobacter baumannii ATCC BAA 1605 (AB-MDR), evolved line 10): 2 | Relative MIC ([1]; Acinetobacter baumannii ATCC 17978 (AB-SEN), evolved line 2): 1 | Relative MIC ([1]; Acinetobacter baumannii ATCC 17978 (AB-SEN), evolved line 4): 2 | Relative MIC ([1]; Acinetobacter baumannii ATCC 17978 (AB-SEN), evolved line 6): 2 | Relative MIC ([1]; Acinetobacter baumannii ATCC 17978 (AB-SEN), evolved line 8): 2 | Relative MIC ([1]; Acinetobacter baumannii ATCC 17978 (AB-SEN), evolved line 9): 2 | Relative MIC ([1]; Acinetobacter baumannii ATCC 17978 (AB-SEN), evolved line 10): 2 | Relative MIC ([1]; Acinetobacter baumannii ATCC BAA 1605 (AB-MDR), evolved line 2): 2 | Relative MIC ([1]; Acinetobacter baumannii ATCC BAA 1605 (AB-MDR), evolved line 5): 2 | Relative MIC ([1]; Acinetobacter baumannii ATCC BAA 1605 (AB-MDR), evolved line 7): 4 | Relative MIC ([1]; Acinetobacter baumannii ATCC BAA 1605 (AB-MDR), evolved line 9): 2 | Relative MIC ([1]; Acinetobacter baumannii ATCC BAA 1605 (AB-MDR), evolved line 10): 2 | Relative MIC (log2) ([2]; replicate 1): 1 | Relative MIC (log2) ([2]; replicate 2): 1 | Relative MIC (log2) ([2]; replicate 3): 1

From PMC11845477, “Exploring the principles behind antibiotics with limited resistance” (Nature Communications, 2025)
